What all share (assay type): cell-based
One test deals with T1, human TLR9 (Homo sapiens, UniProt Q9NR96).
T1 construct: host or cells: HEK-Blue cells
T1 sequence (Q9NR96 26-1032): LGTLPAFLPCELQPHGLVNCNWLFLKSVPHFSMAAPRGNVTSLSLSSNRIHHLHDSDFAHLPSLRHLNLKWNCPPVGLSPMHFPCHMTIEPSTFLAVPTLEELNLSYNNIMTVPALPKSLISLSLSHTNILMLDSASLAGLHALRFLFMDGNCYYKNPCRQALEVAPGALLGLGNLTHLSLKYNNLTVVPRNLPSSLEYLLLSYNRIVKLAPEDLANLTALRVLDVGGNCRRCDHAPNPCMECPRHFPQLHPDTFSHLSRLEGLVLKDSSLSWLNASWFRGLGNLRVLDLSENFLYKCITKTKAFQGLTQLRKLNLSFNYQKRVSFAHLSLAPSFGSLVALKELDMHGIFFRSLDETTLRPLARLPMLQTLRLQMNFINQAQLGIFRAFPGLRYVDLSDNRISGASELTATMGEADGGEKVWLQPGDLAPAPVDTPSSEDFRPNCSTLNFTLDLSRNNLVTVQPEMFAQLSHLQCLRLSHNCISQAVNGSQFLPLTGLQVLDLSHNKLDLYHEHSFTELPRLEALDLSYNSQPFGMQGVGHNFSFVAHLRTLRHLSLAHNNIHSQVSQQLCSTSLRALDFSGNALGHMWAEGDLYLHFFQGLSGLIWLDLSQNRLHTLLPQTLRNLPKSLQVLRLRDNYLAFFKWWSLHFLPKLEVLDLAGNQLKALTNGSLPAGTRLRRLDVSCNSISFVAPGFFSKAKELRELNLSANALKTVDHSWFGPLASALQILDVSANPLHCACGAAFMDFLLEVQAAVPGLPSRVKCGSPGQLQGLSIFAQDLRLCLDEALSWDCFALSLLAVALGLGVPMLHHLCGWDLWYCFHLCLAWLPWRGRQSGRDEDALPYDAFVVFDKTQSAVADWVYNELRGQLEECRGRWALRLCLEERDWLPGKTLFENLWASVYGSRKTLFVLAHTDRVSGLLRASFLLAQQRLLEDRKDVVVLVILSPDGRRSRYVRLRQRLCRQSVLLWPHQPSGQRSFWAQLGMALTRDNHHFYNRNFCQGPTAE
The test can be described thus: TLR9 inhibition reporter assay (HEK-Blue SEAP reporter, ODN2006 stimulation). Particulars: HEK-Blue cells overexpressing human TLR9, SEAP reporter, ODN2006 5 nM, 22 hour incubation. On the procedure:
TLR7/8/9 Inhibition Reporter Assays
HEK-Blue™-cells (Invivogen) overexpressing human TLR7, TLR8 or TLR9 receptors were used for screening inhibitors of these receptors using an inducible SEAP (secreted embryonic alkaline phosphatase) reporter gene under the control of the IFN-β minimal promoter fused to five NF-κB and AP-1-binding sites. Briefly, cells are seeded into Greiner 384 well plates (15000 cells per well for TLR7, 20,000 for TLR8 and 25,000 for TLR9) and then treated with test compounds in DMSO to yield a final dose response concentration range of 0.05 nM-50 μM. After a 30 minute compound pre-treatment at room temperature, the cells are then stimulated with a TLR7 ligand (gardiquimod at a final concentration of 7.5 μM), TLR8 ligand (R848 at a final concentration of 15.9 μM) or TLR9 ligand (ODN2006 at a final concentration of 5 nM) to activate NF-κB and AP-1 which induce the production of SEAP. After a 22 hour incubation at 37° C., 5% CO2, SEAP levels are determined with the addition of HEK-Blue™ Detection reagent (Invivogen), a cell culture medium that allows for detection of SEAP, according to manufacturer's specifications. The percent inhibition is determined as the % reduction in the HEK-Blue signal present in wells treated with agonist plus DMSO alone compared to wells treated with a known inhibitor.
Background: Reporter assays use an easily measured gene product as a stand-in for the process of interest.

A further test concerns the target T2, human TLR7 (Homo sapiens, UniProt Q9NYK1).
T2 construct: host or cells: HEK-Blue cells
T2 sequence (Q9NYK1 27-1049): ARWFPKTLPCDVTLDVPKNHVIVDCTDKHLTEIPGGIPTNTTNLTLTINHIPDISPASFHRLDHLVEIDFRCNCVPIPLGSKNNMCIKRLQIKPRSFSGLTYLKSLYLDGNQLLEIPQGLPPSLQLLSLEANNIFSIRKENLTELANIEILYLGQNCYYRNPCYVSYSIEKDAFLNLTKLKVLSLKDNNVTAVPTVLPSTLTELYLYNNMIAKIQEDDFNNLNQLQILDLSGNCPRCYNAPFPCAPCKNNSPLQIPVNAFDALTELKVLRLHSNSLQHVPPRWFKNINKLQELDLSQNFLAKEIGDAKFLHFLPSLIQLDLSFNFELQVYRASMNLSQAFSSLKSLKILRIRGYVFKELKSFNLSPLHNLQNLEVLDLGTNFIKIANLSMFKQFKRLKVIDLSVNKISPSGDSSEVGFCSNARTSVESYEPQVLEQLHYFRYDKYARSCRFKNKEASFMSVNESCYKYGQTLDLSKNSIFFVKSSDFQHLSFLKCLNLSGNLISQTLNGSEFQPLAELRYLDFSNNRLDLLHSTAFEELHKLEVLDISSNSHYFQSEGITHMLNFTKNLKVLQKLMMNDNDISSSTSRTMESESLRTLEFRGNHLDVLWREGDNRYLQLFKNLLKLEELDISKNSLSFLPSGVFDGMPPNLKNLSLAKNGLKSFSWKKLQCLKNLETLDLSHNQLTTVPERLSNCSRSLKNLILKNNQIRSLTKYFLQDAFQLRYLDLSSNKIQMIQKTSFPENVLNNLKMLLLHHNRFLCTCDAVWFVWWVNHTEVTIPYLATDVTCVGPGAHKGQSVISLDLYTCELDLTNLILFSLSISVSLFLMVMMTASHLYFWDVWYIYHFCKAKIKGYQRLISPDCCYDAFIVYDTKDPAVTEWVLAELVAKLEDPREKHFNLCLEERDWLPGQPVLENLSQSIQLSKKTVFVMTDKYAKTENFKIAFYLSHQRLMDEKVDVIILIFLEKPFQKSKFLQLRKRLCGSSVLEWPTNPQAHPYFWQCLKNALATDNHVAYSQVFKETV
As to the kind of experiment: TLR7 inhibition reporter assay (HEK-Blue SEAP reporter, gardiquimod stimulation). To be noted: HEK-Blue cells overexpressing human TLR7, SEAP reporter, gardiquimod 7.5 μM, 22 hour incubation. A digest of the protocol:
(§1)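 Screening used HEK-Blue cells overexpressing one human TLR (7, 8 or 9) and an IFN-β minimal promoter–NF-κB/AP-1 SEAP construct. Stimulation lasted 22 h at 37 °C with receptor-specific agonist: gardiquimod, R848 or ODN2006 at 7.5 μM, 15.9 μM and 5 nM.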

The target of another test is T3, human TLR8 (Homo sapiens, UniProt Q9NR97).
T3 construct: host or cells: HEK-Blue cells
T3 sequence (Q9NR97 27-1041): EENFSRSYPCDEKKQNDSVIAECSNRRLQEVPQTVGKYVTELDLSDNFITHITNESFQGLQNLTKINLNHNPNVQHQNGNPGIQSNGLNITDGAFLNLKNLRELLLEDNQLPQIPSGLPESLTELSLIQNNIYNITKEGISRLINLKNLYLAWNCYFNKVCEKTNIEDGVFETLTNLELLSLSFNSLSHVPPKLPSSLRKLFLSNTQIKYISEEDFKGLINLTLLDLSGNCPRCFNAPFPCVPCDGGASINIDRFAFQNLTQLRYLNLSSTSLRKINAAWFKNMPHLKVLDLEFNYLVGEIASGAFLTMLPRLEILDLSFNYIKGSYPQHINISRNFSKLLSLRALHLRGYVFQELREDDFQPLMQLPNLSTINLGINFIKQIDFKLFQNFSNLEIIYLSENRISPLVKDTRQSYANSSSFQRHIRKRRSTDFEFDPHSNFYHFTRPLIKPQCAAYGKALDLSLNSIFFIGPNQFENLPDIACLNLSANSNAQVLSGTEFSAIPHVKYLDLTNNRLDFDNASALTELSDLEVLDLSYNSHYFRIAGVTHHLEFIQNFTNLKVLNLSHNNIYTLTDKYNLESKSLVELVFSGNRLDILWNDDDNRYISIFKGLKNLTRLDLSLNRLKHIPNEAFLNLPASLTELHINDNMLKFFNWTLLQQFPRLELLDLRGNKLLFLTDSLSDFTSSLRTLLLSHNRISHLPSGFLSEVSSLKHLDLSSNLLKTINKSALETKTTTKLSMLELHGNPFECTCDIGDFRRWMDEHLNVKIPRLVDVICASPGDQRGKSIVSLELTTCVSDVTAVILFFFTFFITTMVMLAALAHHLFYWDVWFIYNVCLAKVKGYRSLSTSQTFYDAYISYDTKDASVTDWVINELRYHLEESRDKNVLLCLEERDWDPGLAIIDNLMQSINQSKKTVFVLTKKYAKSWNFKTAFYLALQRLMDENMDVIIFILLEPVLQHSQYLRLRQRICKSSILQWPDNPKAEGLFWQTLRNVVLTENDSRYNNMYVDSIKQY
The test can be described thus: TLR8 inhibition reporter assay (HEK-Blue SEAP reporter, R848 stimulation). Particulars: HEK-Blue cells overexpressing human TLR8, SEAP reporter, R848 15.9 μM, 22 hour incubation. A digest of the protocol: as §1

This passage reports IC50 results from patent US11447466B2, “Substituted indole compounds useful as inhibitors of TLR7/8/9” (BRISTOL-MYERS SQUIBB COMPANY, priority 2017, dated 2022).

Usually IC50 stands for the concentration that inhibits the measured activity by half. A higher IC50 goes with weaker potency.

For the compound `Cc1cc(-c2[nH]c3ccc(C4CCN(C5CCOCC5)CC4)cc3c2C(C)C)cn(CC(C)C)c1=O` [Example 262, 1-isobutyl-5-(3-isopropyl-5-(1-(tetrahydro-2H-pyran-4-yl)piperidin-4-yl)-1H-indol-2-yl)-3-methylpyridin-2(1H)-one], the IC50 at human TLR9 amounted to 2120 nM; against human TLR7 it was 47.7 nM; at human TLR8 it was 52.3 nM.

As to `CCCN1CCC(c2ccc3[nH]c(-c4cc(-c5ccncc5)c(=O)n(C)c4)c(C(C)C)c3c2)CC1` [Example 336, 5-(3-isopropyl-5-(1-propylpiperidin-4-yl)-1H-indol-2-yl)-1-methyl-[3,4′-bipyridin]-2(1H)-one], the IC50 is 553 nM on human TLR9, 10.2 nM against human TLR7 and 1.2 nM on human TLR8.

Consider `CC(C)c1c(-c2cc(-c3ccc(F)nc3)c(=O)n(C)c2)[nH]c2ccc(C3CCN(C(C)C)CC3)cc12` [Example 342, 6′-fluoro-5-(3-isopropyl-5-(1-isopropylpiperidin-4-yl)-1H-indol-2-yl)-1-methyl-[3,3′-bipyridin]-2(1H)-one], for which the IC50 is 3330 nM on human TLR9, 12.9 nM against human TLR7 and 16 nM on human TLR8.

As to `Cc1cc(-c2[nH]c3ccc(C4CCN(CCCC(F)(F)F)CC4)cc3c2C(C)C)cn(Cc2ccccc2)c1=O` [Example 111, 1-benzyl-5-(3-isopropyl-5-(1-(4,4,4-trifluorobutyl)piperidin-4-yl)-1H-indol-2-yl)-3-methylpyridin-2(1H)-one], the IC50 against human TLR9 was found to be 3060 nM; at human TLR7, 48 nM; against human TLR8, 157 nM.

Take `CN[C@@H](C)C(=O)N1CCC(c2ccc3[nH]c(-c4cc(C)c(=O)n(C)c4)c(C(C)C)c3c2)CC1` [Example 297, 5-(3-isopropyl-5-(1-(methyl-L-alanyl)piperidin-4-yl)-1H-indol-2-yl)-1,3-dimethylpyridin-2(1H)-one]: the values for the IC50 at human TLR9, against human TLR7 and on human TLR8 were 3990 nM, 4.4 nM and 5.5 nM, respectively.

As to `CC(C)c1c(-c2cc(-c3cncnc3)c(=O)n(C)c2)[nH]c2ccc(C3CCN(C)CC3)cc12` [Example 246, 5-(3-isopropyl-5-(1-methylpiperidin-4-yl)-1H-indol-2-yl)-1-methyl-3-(pyrimidin-5-yl)pyridin-2(1H)-one], the IC50 against human TLR9 is 387 nM; against human TLR7, 2.9 nM; on human TLR8, 1.7 nM.

In the case of `Cc1nn(C)cc1CN1CCC(c2ccc3[nH]c(-c4cc(C)c(=O)n(C)c4)c(C(C)C)c3c2)CC1` [Example 232, 5-(5-(1-((1,3-dimethyl-1H-pyrazol-4-yl)methyl)piperidin-4-yl)-3-isopropyl-1H-indol-2-yl)-1,3-dimethylpyridin-2(1H)-one], the concentration for half-maximal inhibition (IC50) on human TLR9 was found to be 6010 nM; on human TLR7, 2.9 nM; against human TLR8 it was 1.1 nM.

Regarding `Cc1cc(-c2[nH]c3ccc(C4CCN(C(=O)[C@H]5NCC[C@@H]5O)CC4)cc3c2C(C)C)cn(C)c1=O` [Example 291, 5-(5-(1-((2S,3S)-3-hydroxypyrrolidine-2-carbonyl)piperidin-4-yl)-3-isopropyl-1H-indol-2-yl)-1,3-dimethylpyridin-2(1H)-one], the IC50 on human TLR9 was 1420 nM; against human TLR7, 12.3 nM; against human TLR8, 11.2 nM.

On to `Cc1c(-c2[nH]c3ccc(C4CCN(C5CCOCC5)CC4)cc3c2C(C)C)cn(C)c(=O)c1Cl` [Example 239, 3-chloro-5-(3-isopropyl-5-(1-(tetrahydro-2H-pyran-4-yl)piperidin-4-yl)-1H-indol-2-yl)-1,4-dimethylpyridin-2(1H)-one], for which the IC50 against human TLR9 amounted to 5810 nM; at human TLR7, 5.4 nM; on human TLR8, 5.3 nM.

Consider `Cc1cc(-c2[nH]c3ccc(C4CCN(C(=O)[C@@H]5C[C@@H](O)CN5C)CC4)cc3c2C(C)C)cn(C)c1=O` [Example 289, 5-(5-(1-((2S,4R)-4-hydroxy-1-methylpyrrolidine-2-carbonyl)piperidin-4-yl)-3-isopropyl-1H-indol-2-yl)-1,3-dimethylpyridin-2(1H)-one], for which the IC50 at human TLR9 came to 5280 nM; against human TLR7 it was 5.9 nM; against human TLR8, 12.3 nM.
